Test results: patent publication US20230135945A1, “Method for Measuring Modulation in the Activity of a G Protein-Coupled Receptor” (CISBIO BIOASSAYS, priority 2017, published 2023)
“Also recorded” adds a separate entry of the source. Where no end group is shown, it is not given here.

Assays:
[1] = target: T1, 5HT1A (Homo sapiens, UniProt P08908); assay: Activation test format 2B on 5HT1A membranes (Example 7); type: biochemical; conditions: HEK293 membranes 10 μg/well, GTPγS 100 nM, agonist 1 μM (FIG. 10)
T1 construct: purchased Perkin Elmer RBHS1AM400UA; host or cells: HEK293-EBNA
T1 sequence (P08908 1-422): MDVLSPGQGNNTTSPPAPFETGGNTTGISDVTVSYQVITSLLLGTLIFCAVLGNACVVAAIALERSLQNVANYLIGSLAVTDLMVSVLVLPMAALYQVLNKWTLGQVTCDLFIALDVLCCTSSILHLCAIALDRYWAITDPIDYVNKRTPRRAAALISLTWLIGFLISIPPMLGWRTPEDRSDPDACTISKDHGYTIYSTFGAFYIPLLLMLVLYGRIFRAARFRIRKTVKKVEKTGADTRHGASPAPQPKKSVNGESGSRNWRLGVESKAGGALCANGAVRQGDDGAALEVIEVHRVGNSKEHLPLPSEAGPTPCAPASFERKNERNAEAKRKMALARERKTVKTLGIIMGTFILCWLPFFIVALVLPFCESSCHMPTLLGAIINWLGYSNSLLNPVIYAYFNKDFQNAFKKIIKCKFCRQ
Method: (§1) All reagents were diluted in TrisHCl 50 mM pH 7.4, MgCl2 10 mM, NaCl 10 mM, BSA 0.1% buffer. The membranes were prepared 4× to distribute 1 μg/well (except for other specifications). The GDP, GTP or GTPγS nucleotides and test compounds (agonists or antagonists) were pre-mixed and prepared 4× to obtain the final concentrations in the wells mentioned in the graphs. […]
(§2) The plates were incubated at 21° C. for 3 h or 20 h and then the HTRF signal was measured on the PHERAstar reader (BMG Labtech) with the following configuration: • Module: HTRF (Excitation 337nm, Emission 665nm and 620nm) • Excitation: laser, 40 flashes • Reading window: delays: 60 μs—Integration: 400 μs

[2] = tested on: Galpha protein; assay: Binding specificity of detection ligands for the forms of the Galpha protein
Method: In order to evaluate the selectivity of antibodies between the different forms of the Galphai1 protein (GDP-bound full form vs. GTPgS-bound full form vs. empty form), the test was performed in parallel on TST-Galphai1 protein conditions pre-incubated in the buffer containing either GDP at 1 μM, GTPgS at 1 μM or no nucleotide. The best hybridomas were then cloned with a limit dilution step to obtain hybridoma clones.
• the anti-Galphai antibody SC13533 was purchased from Santa Cruz Biotechnology (catalogue number SC13533). […] The antibodies were labeled with compatible fluorescent probes for TR-FRET detection (red—d2 acceptor or Lumi4Tb donor).

[3] = target: T2, Delta Opioid GPCR (Homo sapiens, UniProt P41143); assay: Activation test according to format 2B (TR-FRET, full Galpha bound to GTPγS vs empty form), membranes expressing Delta Opioid GPCR and Galphai protein; type: biochemical; conditions: for TR-FRET signal (HTRF ratio), inhibition of agonist activation by antagonist: SNC162 fixed 10 nM
T2 construct: purchased Perkin Elmer 6110549400UA (HEK293)
T2 sequence (P41143 whole entry): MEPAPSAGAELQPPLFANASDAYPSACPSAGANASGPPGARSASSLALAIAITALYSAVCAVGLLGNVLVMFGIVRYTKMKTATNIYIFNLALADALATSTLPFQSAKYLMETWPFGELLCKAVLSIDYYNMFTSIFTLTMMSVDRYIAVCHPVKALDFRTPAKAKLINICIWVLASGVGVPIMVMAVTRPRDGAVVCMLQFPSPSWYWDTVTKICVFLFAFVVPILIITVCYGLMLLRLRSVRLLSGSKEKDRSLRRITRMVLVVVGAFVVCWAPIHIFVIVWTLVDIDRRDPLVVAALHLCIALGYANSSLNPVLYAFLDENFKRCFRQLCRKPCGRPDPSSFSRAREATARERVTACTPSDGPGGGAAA
Method: All reagents were diluted in TrisHCl 50 mM pH 7.4, MgCl2 10 mM, NaCl 10 mM, BSA 0.1% buffer. The membranes were prepared 4× to distribute 1 μg/well (except for other specifications). The GDP, GTP or GTPγS nucleotides and test compounds (agonists or antagonists) were pre-mixed and prepared 4× to obtain the final concentrations in the wells mentioned in the graphs. All anti-Galphai reagents used for detection were prepared 4× to target the following final concentrations in the following wells: sdAbs-d2 (50 nM); antibody SC13533-d2 (0.1 nM); antibody SC13533-Lumi4Tb (0.25 nM); antibody DSV36S-d2 (0.1 nM); antibody DSV36S-Lumi4Tb (0.25 nM); antibody DSV3S-d2 (10 nM); antibody DSV39S-d2 (10 nM); antibody DSV26S-Lumi4Tb (0.25 nM); peptide KB1753-Biotin (50 nM) in combination with streptavidin-XL665 (SA-XL) (25 nM) (pre-incubated 30 minutes at room temperature before distribution in plates). • Distribution of reagents in the 384-well plates: • Membranes expressing GPCR and G protein: 5 μL • Nucleotides (GDP or GTP or GTPγS) ±Test compounds (agonists and/or antagonists): 5 μL • Anti-Galphai-acceptor ligand (d2 or XL665): 5 μL • Anti-Galphai-donor ligand (Lumi4Tb): 5 μL
as §2
After activation of GPCR and Galpha protein by a GPCR agonist, the decrease in the proportion of the full Galpha protein form bound to GTP or bound to GTPγS (due to an increase in the proportion of the empty Galpha protein form) is specifically detected using two ligands labeled with RET partners. Activation of GPCR results in a decrease in the RET signal.
In a second step, the ability of a GPCR agonist to modulate the proportion of Galpha protein in empty form was tested with the same membranes and detection ligand pairs. HEK293 cell membranes expressing Delta Opioid GPCR and Galphai protein were incubated with GTPγS (10 nM) and GPCR agonist (SNC162) in increasing concentration. […] In a second condition, activation with a fixed concentration of GPCR agonist SNC162 (10 nM) was inhibited by an increasing concentration of GPCR antagonist (Naltrindole).
On the other hand, membranes (10 μg/wells) of HEK293 or CHO-K1 cells expressing the Delta Opioid GPCR and Galphai protein were incubated with GTPγS (100 nM) alone or in combination with a saturated fixed concentration (1 μM) of the receptor agonist (SNC162).
In a first condition, HEK293 cell membranes expressing Delta Opioid GPCR and Galphai protein were incubated with GTPγS (10 nM) and a GPCR agonist (SNC162) in increasing concentration.

[4] = target: T2, Delta Opioid GPCR; assay: Activation test according to format 1A (TR-FRET, empty Galpha vs GDP-bound full form), HEK293 membranes; type: biochemical; conditions: GDP 10 μM
Method: as §1
The plates were incubated at 21° C. for 3 h or 20 h and then the HTRF signal was measured on the PHERAstar reader (BMG Labtech) with the following configuration: • Module: HTRF (Excitation 337nm, Emission 665nm and 620nm) • Excitation: laser, 40 flashes • Reading window: delays: 60 μs—Integration: 400 μs […]

[5] = target: T2, Delta Opioid GPCR; assay: Activation test according to format 2A (TR-FRET, empty Galpha vs GTP/GTPγS-bound full form), HEK293 membranes; type: biochemical

NCCc1c[nH]c2ccc(O)cc12 [serotonin]
TR-FRET signal (HTRF ratio) generated by stimulation with the receptor agonist [1]: decrease in the TR-FRET signal

Ser-Ser-Arg-Gly-Tyr-Tyr-His-Gly-Ile-Trp-Val-Gly-Glu-Glu-Gly-Arg-Leu-Ser-Arg (SSRGYYHGIWVGEEGRLSR; also: biotinylated, place not given here) [KB1753, biotinylated form generated by Cisbio Bioassays]
Form of the Galpha protein specifically bound (empty, GDP-bound, GTP/non-hydrolyzable GTP-bound) [2]: specifically binds the form of the Galpha GTP or GTP protein that is non-hydrolyzable or slowly hydrolyzable relative to the forms of the empty Galpha protein and GDP; also recorded: specifically recognizes the full Galpha protein bound to GTP

C=CCN1C[C@H](C)N([C@@H](c2ccccc2)c2ccc(C(=O)N(CC)CC)cc2)C[C@H]1C [SNC162]
TR-FRET signal (HTRF ratio) generated by stimulation with the agonist ([3]; Example 7, CHO-K1 membranes 10 μg/well, GTPγS 100 nM, agonist 1 μM (FIG. 10)): decrease in the TR-FRET signal
TR-FRET signal (HTRF ratio) generated by stimulation with the receptor agonist ([3]; Example 7, HEK293 membranes 10 μg/well, GTPγS 100 nM, agonist 1 μM, KB1753-biotin/SA-XL + SC13533-Lumi4Tb (FIG. 10)): decrease in the TR-FRET signal
TR-FRET signal (HTRF ratio) generated by stimulation with the agonist ([3]; Example 9, format 2B, GTPγS 10 nM, agonist in increasing concentration, DSV36S-Lumi4Tb/SC13533-d2 (FIG. 12B)): decrease in the TR-FRET signal
TR-FRET signal (HTRF ratio) generated by stimulation with the agonist ([3]; Example 10, format 2B, GTPγS 10 nM, agonist in increasing concentration, sdAb-d2 ligand pairs (FIGS. 13B-19B)): decrease in the TR-FRET signal
TR-FRET signal (HTRF ratio) generated by stimulation with the agonist ([3]; format 2B, HEK293 membranes, GTPγS 10 nM, agonist in increasing concentration, detection ligand pairs of Examples 1-4 (FIGS. 4B-7B)): decrease in the TR-FRET signal
TR-FRET signal (HTRF ratio) generated by stimulation with the agonist ([4]; agonist in increasing concentration, DSV39S-d2 + DSV26S-Lumi4Tb (FIG. 8B)): increase in the TR-FRET signal
TR-FRET signal (HTRF ratio) generated by stimulation with the agonist ([5]; Example 8, GTP 50, 1000 or 20000 nM, agonist 1 μM, membranes 1 μg/well, amplitude lower than with GTPγS (FIG. 11)): increase in the TR-FRET signal
TR-FRET signal (HTRF ratio) generated by stimulation with the agonist ([5]; Example 8, GTPγS 50, 1000 or 20000 nM, agonist 1 μM, membranes 1 μg/well (FIG. 11)): increase in the TR-FRET signal
TR-FRET signal (HTRF ratio) generated by stimulation with the agonist ([5]; GTPγS 10 nM, agonist in increasing concentration, DSV39S-d2 + DSV26S-Lumi4Tb (FIG. 9B)): increase in the TR-FRET signal

Oc1ccc2c3c1O[C@H]1c4[nH]c5ccccc5c4C[C@@]4(O)[C@@H](C2)N(CC2CC2)CC[C@]314 [Naltrindole]
TR-FRET signal (HTRF ratio), inhibition of agonist activation by antagonist ([3]; Example 9, format 2B, GTPγS 10 nM, antagonist in increasing concentration (FIG. 12B)): increase in the TR-FRET signal
TR-FRET signal (HTRF ratio), inhibition of agonist activation by antagonist ([3]; Example 10, format 2B, GTPγS 10 nM, antagonist in increasing concentration, FIGS. 13B-18B): increase in the TR-FRET signal
TR-FRET signal (HTRF ratio), inhibition of agonist activation by antagonist ([3]; format 2B, HEK293 membranes, GTPγS 10 nM, antagonist in increasing concentration, Examples 1-3): increase in the TR-FRET signal
TR-FRET signal (HTRF ratio), inhibition of agonist activation by antagonist ([4]; SNC162 fixed 10 nM, antagonist in increasing concentration (FIG. 8B)): decrease in the TR-FRET signal
TR-FRET signal (HTRF ratio), inhibition of agonist activation by antagonist ([5]; GTPγS 10 nM, SNC162 fixed 10 nM, antagonist in increasing concentration (FIG. 9B)): decrease in the TR-FRET signal

B1: DSV36S: anti-Galphai antibody generated by Cisbio Bioassays (antibody, V domains shown)
VH: EVQLQQSGAELVRPGALVKLSCKASGFNIKDYYMHWVKQRPEQGLEWIGWIDPENGNTIYDPKFQGKASITADTSSNTAYLQLSSLTSEDTAVYYCTRGGGYYSDWYFDVWGAGTTVTVSS
VL: QIVLTQSPAIMSASPGEKVTMTCSASSSVSYMHWYQQKSGTSPKRWIYDTSKLASGVPARFSGSGSGTSYSLTISSMEAEDAATYYCQQWSSNPPITFGAGTKLELK
Form of the Galpha protein specifically bound (empty, GDP-bound, GTP/non-hydrolyzable GTP-bound) [2]: specifically binds the form of the Galpha GTP or GTP protein that is non-hydrolyzable or slowly hydrolyzable relative to the forms of the empty Galpha protein and GDP
